Patent US10174013B2, “Benzimidazole derivatives as kinase inhibitors” (SELVITA S.A., priority 2012, dated 2019)
Structures can show the parent of a compound that is named as a salt. Where two headings read alike, the source gives them in different places.

What was measured:
hERG potassium channel = hERG potassium channel (Homo sapiens (Human), UniProt Q12809); experiment: hERG automated patch clamp assay (QPatch HT)
Outline: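 Automated whole-cell patch clamp of hERG current in mammalian cells at room temperature. Compounds applied at 0.1, 1, 3, 10 and 30 μM, 3 min per concentration, n≥2 cells each.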

FLT3wt = FLT3wt (Homo sapiens (Human), UniProt P36888); experiment: ADP-Glo Kinase Assay, Flt3 wt; assay type: biochemical; conditions: 1 μM compound; for inhibition at 1 µM: read-out: Flt3wt % INH (1 μM)
Outline: (§1)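 Buffer was MOPS 5 mM (pH 7.5) with MgCl2, EDTA and DTT; ATP set at apparent Km per kinase. Compounds were diluted in assay buffer to 1000 nM. Kinase-generated ADP was converted to luciferase signal and normalised to percent inhibition.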

SW-480 cells = experiment: Growth inhibition, MTS assay, SW-480; assay type: cell-based, Human; conditions: 72 hours, MTS cell viability, read-out: SW-480 ED50
CYP3A4 = CYP3A4 (Homo sapiens (Human), UniProt P08684); experiment: Cytochrome P450 inhibition, fluorescence, CYP3A4; assay type: in vitro ADME; conditions: recombinant CYP3A4, fluorescence detection; read-out: CYP inhibition (CYP 3A4 screening, IC50 class)
Outline: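 Recombinant human CYP3A4 was incubated at 37 °C for 30–45 min with a fluorogenic probe substrate near apparent Km and serially diluted compound, after ≥10 min preincubation with an NADPH-regenerating system. Fluorescence was read after stopping, with compound autofluorescence measured beforehand and no-inhibitor and pre-stopped blanks as controls.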

MOLM16 cells = experiment: Growth inhibition, MTS assay, MOLM16; assay type: cell-based, Human; conditions: MTS cell viability, read-out: MOLM 16 ED50
Pim-3 = Pim-3 (Homo sapiens (Human), UniProt Q86V86); experiment: ADP-Glo Kinase Assay, Pim-3; assay type: biochemical; conditions: 1 μM compound; for inhibition at 1 µM: read-out: Pim-3 % INH (1 μM)
Outline: as §1

Jeko-1 cells = experiment: Growth inhibition, MTS assay, Jeko-1; assay type: cell-based, Human; conditions: 72 hours, MTS cell viability, read-out: Jeko-1 ED50
KG-1 cells = experiment: Growth inhibition, MTS assay, KG-1; assay type: cell-based, Human; conditions: 72 hours, MTS cell viability
Source text: The following cell lines, were obtained and used in tests as outlined below: • Human myelomonocytic, biphenotypic leukemia MV4-11 cells (harboring a Flt3-ITD mutation); • Human Acute Myeloid Leukemia MOLM16 cells; • Human Acute Myeloid Leukemia MOLM13 cells (harboring a Flt3-ITD mutation); • Human Myeloid Leukemia KG-1 cells; • Human erythroleukemia HEL92 cells; • Human mantle cell lymphoma Jeko-1 cells; • Human hepatocellular carcinoma HepG2 cells; and • Human colon adenocarcinoma SW-480 cells.
The assays were carried out according to the following protocol, which is described as an example for the MV4-11 cells:
Ten thousand MV4-11 cells were inoculated into each well of a 96-well microplate (manufactured by Corning Corp.) using Iscove's MDM medium (culture medium) containing 10% fetal calf serum (FCS). The same day, a dimethyl sulfoxide (DMSO) solution of each test compound prepared in a concentration of 10 mmol/L was further diluted with DMSO to the desired concentrations (0.1, 0.5, 1, 2.5, 5 and 10 micromol/L), and the diluted solution was added to each well. The individual wells were further cultured in 5% carbon dioxide at 37° C. for 72 hours. […] Briefly, 10 μl MTS (3-(4,5-Dimethyl-2-thiazolyl)-5-(carboxymethoxyphenyl)-2-(4-sulfophenyl)-2H-tetrazolium was added to each well, and culturing was performed in 5% carbon dioxide at 37° C. for 2 hours. After this incubation and using a microplate spectrophotometer (Synergy 2 multi-mode microplate reader (BioTek)), the absorbance of each well was measured at 490 nm. The value for cells not incubated with a test compound was designated as 100%. By comparing these values with the absorbance difference obtained at the well in which each test compound was added, the cell viability (% viability) after treatment with the test compound was calculated.

FLT3wt, sequence (P36888 27-993): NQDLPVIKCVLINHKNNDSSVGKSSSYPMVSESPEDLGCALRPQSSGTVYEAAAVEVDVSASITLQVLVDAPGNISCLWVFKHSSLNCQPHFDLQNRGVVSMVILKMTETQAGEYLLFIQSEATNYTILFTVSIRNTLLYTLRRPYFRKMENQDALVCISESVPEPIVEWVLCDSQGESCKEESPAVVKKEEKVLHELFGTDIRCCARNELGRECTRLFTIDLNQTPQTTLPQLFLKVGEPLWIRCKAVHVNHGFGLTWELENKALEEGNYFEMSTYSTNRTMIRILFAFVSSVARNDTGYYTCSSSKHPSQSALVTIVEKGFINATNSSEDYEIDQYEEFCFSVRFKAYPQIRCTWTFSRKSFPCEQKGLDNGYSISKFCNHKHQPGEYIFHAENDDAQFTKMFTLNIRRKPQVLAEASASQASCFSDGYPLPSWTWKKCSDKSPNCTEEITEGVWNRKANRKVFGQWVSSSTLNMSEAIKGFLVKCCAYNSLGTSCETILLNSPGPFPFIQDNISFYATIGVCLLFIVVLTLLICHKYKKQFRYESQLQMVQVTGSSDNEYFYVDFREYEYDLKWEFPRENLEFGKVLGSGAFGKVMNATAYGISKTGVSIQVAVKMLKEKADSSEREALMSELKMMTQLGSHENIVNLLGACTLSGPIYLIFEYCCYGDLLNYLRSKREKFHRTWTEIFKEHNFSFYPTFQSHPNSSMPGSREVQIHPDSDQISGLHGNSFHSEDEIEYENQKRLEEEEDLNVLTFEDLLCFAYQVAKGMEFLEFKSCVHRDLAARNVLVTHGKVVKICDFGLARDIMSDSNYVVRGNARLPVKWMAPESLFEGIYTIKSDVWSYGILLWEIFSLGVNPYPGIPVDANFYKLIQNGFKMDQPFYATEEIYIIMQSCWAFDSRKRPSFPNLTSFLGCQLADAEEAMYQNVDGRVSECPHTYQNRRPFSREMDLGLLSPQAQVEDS
hERG potassium channel, sequence (Q12809 whole entry): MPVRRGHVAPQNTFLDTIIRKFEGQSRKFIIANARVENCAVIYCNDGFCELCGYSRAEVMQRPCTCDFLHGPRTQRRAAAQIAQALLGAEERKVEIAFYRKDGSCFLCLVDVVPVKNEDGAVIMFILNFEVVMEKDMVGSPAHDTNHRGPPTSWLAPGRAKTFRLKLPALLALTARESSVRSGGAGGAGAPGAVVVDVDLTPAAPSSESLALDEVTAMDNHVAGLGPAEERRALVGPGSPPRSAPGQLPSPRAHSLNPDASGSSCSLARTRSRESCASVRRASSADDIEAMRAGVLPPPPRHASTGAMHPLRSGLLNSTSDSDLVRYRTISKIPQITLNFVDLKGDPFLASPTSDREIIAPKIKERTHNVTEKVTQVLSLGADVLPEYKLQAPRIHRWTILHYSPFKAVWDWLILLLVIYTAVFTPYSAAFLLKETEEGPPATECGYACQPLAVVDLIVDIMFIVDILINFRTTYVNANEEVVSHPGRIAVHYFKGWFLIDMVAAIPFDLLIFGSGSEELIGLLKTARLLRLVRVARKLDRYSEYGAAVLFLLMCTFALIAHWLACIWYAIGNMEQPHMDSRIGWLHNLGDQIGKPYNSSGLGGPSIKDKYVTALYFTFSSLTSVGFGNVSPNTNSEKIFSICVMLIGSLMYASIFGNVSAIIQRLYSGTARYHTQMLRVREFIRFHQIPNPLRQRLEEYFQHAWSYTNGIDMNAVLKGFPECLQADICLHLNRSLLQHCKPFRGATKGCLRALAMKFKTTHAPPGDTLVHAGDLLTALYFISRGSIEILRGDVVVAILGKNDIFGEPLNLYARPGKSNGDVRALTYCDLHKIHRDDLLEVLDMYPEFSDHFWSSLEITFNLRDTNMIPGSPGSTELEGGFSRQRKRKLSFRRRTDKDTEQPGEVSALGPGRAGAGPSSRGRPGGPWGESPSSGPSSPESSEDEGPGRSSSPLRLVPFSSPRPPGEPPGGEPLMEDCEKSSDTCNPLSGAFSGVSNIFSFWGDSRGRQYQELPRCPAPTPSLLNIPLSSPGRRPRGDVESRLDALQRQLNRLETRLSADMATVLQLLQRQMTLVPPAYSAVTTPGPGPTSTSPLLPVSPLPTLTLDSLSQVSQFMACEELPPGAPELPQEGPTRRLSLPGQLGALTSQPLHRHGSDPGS
CYP3A4, sequence (P08684 whole entry): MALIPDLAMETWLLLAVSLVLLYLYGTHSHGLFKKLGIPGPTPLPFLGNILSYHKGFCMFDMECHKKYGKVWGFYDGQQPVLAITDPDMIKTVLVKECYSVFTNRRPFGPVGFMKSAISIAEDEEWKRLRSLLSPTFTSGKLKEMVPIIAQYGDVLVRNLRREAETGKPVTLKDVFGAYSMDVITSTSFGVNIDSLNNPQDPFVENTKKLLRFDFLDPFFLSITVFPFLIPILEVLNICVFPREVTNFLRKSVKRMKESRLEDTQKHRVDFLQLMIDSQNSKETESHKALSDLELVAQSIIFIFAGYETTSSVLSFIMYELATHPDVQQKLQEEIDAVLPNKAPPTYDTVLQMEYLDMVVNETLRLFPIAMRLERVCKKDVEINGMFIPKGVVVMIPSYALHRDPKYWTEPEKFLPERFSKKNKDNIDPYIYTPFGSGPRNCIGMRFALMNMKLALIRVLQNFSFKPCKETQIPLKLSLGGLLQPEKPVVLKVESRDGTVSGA

Compound | IC50 (hERG potassium channel; human, 3 min) [nM] | inhibition at 1 µM (FLT3wt) [%] | IC50 (SW-480 cells; Homo sapiens, SW480) [nM] | IC50 (CYP3A4) [nM] | IC50 (MOLM16 cells; Homo sapiens, MOLM16, 72 hours) [nM] | inhibition at 1 µM (Pim-3) [%] | IC50 (Jeko-1 cells; Homo sapiens, JeKo-1) [nM] | KG-1 ED50 (KG-1 cells) [nM] | IC50 (hERG potassium channel) [nM] | Flt3wt % INH (1 μM) (FLT3wt) [%] | IC50 (MOLM16 cells; 72 hours) [nM] | Pim-3 % INH (1 μM) (Pim-3) [%] | IC50 (Jeko-1 cells) [nM] | IC50 (MOLM16 cells; Homo sapiens, MOLM16, 72 h) [nM] | IC50 (SW-480 cells) [nM]
CCn1c(N2CCNCC2)nc2c([N+](=O)[O-])c(Br)c(Br)cc21 [Example 1A, 5,6-dibromo-1-ethyl-4-nitro-2-(piperazin-1-yl)-1H-1,3-benzodiazole hydrochloride] | 1600 | 26 | 2500 | 3300 to 10000 | 500 | 65 | 800 | – | – | – | – | – | – | – | –
CC(C)n1c(N2CCNC[C@H]2C)nc2c([N+](=O)[O-])c(Br)c(Br)cc21 [Example 1AX] | – | – | – | 1100 to 3300 | – | – | – | 120 | 1230 | 83 | 20 | 95 | >100 | – | –
CC(C)n1c(N2CC[C@@H](N)C2)nc2c(C#N)c(Br)c(Br)cc21 [Example 1BI] | 5170 | 27 | – | 1100 to 3300 | – | 95 | 700 | 90 | – | – | – | – | – | 80 | –
CCCn1c(N2CCNCC2)nc2c([N+](=O)[O-])c(Br)c(Br)cc21 [Example 1M] | – | – | – | 1100 to 3300 | – | – | – | – | 520 | 46 | – | 73 | – | – | 2100
CC(C)n1c(N2CCNCC2)nc2c([N+](=O)[O-])c(Br)c(Br)cc21 [Example 2A, 5,6-dibromo-4-nitro-2-(piperazin-1-yl)-1-(propan-2-yl)-1H-1,3-benzodiazole hydrochloride] | – | 66 | 800 | 3300 to 10000 | – | 89 | 400 | 630 | 3060 | – | – | – | – | 140 | –
Cl.O=[N+]([O-])c1c(Br)c(Br)cc2c1nc(N1CCNCC1)n2C1CCCC1 [Example 2D, 5,6-dibromo-1-cyclopentyl-4-nitro-2-(piperazin-1-yl)-1H-1,3-benzodiazole hydrochloride] | – | 55 | 600 | 1100 to 3300 | – | > 95 | – | – | 1600 | – | – | – | – | – | –
CC(C)n1c(C2CCNCC2)nc2c([N+](=O)[O-])c(Br)c(Br)cc21 [Example 26A, 5,6-dibromo-4-nitro-2-(piperidin-4-yl)-1-(propan-2-yl)-1H-1,3-benzodiazole] | – | 65 | – | > 10000 | – | 90 | 300 | 470 | – | – | – | – | – | 220 | –
